Measurements taken from PubChem BioAssay AID1963837 (Molecular Pharmacology Branch, DTP, NCI, 2024).

System: 843126-344-R-J1-PDC complex spheroid viability
Experiment: Anticancer human tumor 843126-344-R-J1-PDC patient-derived melanoma cell line growth inhibition [POLQ]
Conditions: second compound 10 µM; first compound 0.00316 µM; active compounds read low
In short: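 Growth inhibition in 3D: complex spheroids (tumor PDC, HUVEC, MSC) treated with POLQ inhibitor combinations; where Cmax unknown, highest tested concentration 10 microM, except SN-38 at 1 microM.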
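Also: spheroids exposed to drugs for seven days before readout.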

Row | SMILES | viability, T/C [%]
1 | C=CCn1c(=O)c2cnc(Nc3ccc(N4CCN(C)CC4)cc3)nc2n1-c1cccc(C(C)(C)O)n1 + Cc1cccc(N(C)C(=O)C2C(O)CCN2c2nc(C)cc(C(F)(F)F)c2C#N)c1 | 105
2 | CC[C@@]1(O)C(=O)OCc2c1cc1n(c2=O)Cc2cc3c(CN(C)C)c(O)ccc3nc2-1 + Cc1cccc(N(C)C(=O)C2C(O)CCN2c2nc(C)cc(C(F)(F)F)c2C#N)c1 | 74.6
3 | CCc1c2c(nc3ccc(O)cc13)-c1cc3c(c(=O)n1C2)COC(=O)[C@]3(O)CC + Cc1cccc(N(C)C(=O)C2C(O)CCN2c2nc(C)cc(C(F)(F)F)c2C#N)c1 | 64.8
4 | Cn1ncnc1[C@H]1c2n[nH]c(=O)c3cc(F)cc(c23)N[C@@H]1c1ccc(F)cc1 + Cc1cccc(N(C)C(=O)C2C(O)CCN2c2nc(C)cc(C(F)(F)F)c2C#N)c1 | 84.2

Same assay, conditions: second compound 10 µM; first compound 0.01 µM; active compounds read low

Row | SMILES | viability, T/C [%]
5 | C=CCn1c(=O)c2cnc(Nc3ccc(N4CCN(C)CC4)cc3)nc2n1-c1cccc(C(C)(C)O)n1 + Cc1cccc(N(C)C(=O)C2C(O)CCN2c2nc(C)cc(C(F)(F)F)c2C#N)c1 | 89
6 | CC[C@@]1(O)C(=O)OCc2c1cc1n(c2=O)Cc2cc3c(CN(C)C)c(O)ccc3nc2-1 + Cc1cccc(N(C)C(=O)C2C(O)CCN2c2nc(C)cc(C(F)(F)F)c2C#N)c1 | 87.8
7 | CCc1c2c(nc3ccc(O)cc13)-c1cc3c(c(=O)n1C2)COC(=O)[C@]3(O)CC + Cc1cccc(N(C)C(=O)C2C(O)CCN2c2nc(C)cc(C(F)(F)F)c2C#N)c1 | 68.3
8 | Cn1ncnc1[C@H]1c2n[nH]c(=O)c3cc(F)cc(c23)N[C@@H]1c1ccc(F)cc1 + Cc1cccc(N(C)C(=O)C2C(O)CCN2c2nc(C)cc(C(F)(F)F)c2C#N)c1 | 77.4

Same assay, conditions: second compound 10 µM; first compound 0.0316 µM; active compounds read low

Row | SMILES | viability, T/C [%]
9 | C=CCn1c(=O)c2cnc(Nc3ccc(N4CCN(C)CC4)cc3)nc2n1-c1cccc(C(C)(C)O)n1 + Cc1cccc(N(C)C(=O)C2C(O)CCN2c2nc(C)cc(C(F)(F)F)c2C#N)c1 | 94.3
10 | CC[C@@]1(O)C(=O)OCc2c1cc1n(c2=O)Cc2cc3c(CN(C)C)c(O)ccc3nc2-1 + Cc1cccc(N(C)C(=O)C2C(O)CCN2c2nc(C)cc(C(F)(F)F)c2C#N)c1 | 66.6
11 | CCc1c2c(nc3ccc(O)cc13)-c1cc3c(c(=O)n1C2)COC(=O)[C@]3(O)CC + Cc1cccc(N(C)C(=O)C2C(O)CCN2c2nc(C)cc(C(F)(F)F)c2C#N)c1 | 67
12 | CNCc1ccc(-c2[nH]c3cc(F)cc4c3c2CCNC4=O)cc1 + Cc1cccc(N(C)C(=O)C2C(O)CCN2c2nc(C)cc(C(F)(F)F)c2C#N)c1 | 82.5
13 | Cn1ncnc1[C@H]1c2n[nH]c(=O)c3cc(F)cc(c23)N[C@@H]1c1ccc(F)cc1 + Cc1cccc(N(C)C(=O)C2C(O)CCN2c2nc(C)cc(C(F)(F)F)c2C#N)c1 | 86.2
14 | O=C(c1cc(Cc2n[nH]c(=O)c3ccccc23)ccc1F)N1CCN(C(=O)C2CC2)CC1 + Cc1cccc(N(C)C(=O)C2C(O)CCN2c2nc(C)cc(C(F)(F)F)c2C#N)c1 | 83.8

Same assay, conditions: second compound 10 µM; first compound 0.1 µM; active compounds read low

Row | SMILES | viability, T/C [%]
15 | C=CCn1c(=O)c2cnc(Nc3ccc(N4CCN(C)CC4)cc3)nc2n1-c1cccc(C(C)(C)O)n1 + Cc1cccc(N(C)C(=O)C2C(O)CCN2c2nc(C)cc(C(F)(F)F)c2C#N)c1 | 94.1
16 | CC[C@@]1(O)C(=O)OCc2c1cc1n(c2=O)Cc2cc3c(CN(C)C)c(O)ccc3nc2-1 + Cc1cccc(N(C)C(=O)C2C(O)CCN2c2nc(C)cc(C(F)(F)F)c2C#N)c1 | 49.6
17 | CCc1c2c(nc3ccc(O)cc13)-c1cc3c(c(=O)n1C2)COC(=O)[C@]3(O)CC + Cc1cccc(N(C)C(=O)C2C(O)CCN2c2nc(C)cc(C(F)(F)F)c2C#N)c1 | 66.2
18 | CNCc1ccc(-c2[nH]c3cc(F)cc4c3c2CCNC4=O)cc1 + Cc1cccc(N(C)C(=O)C2C(O)CCN2c2nc(C)cc(C(F)(F)F)c2C#N)c1 | 76.9
19 | Cn1ncnc1[C@H]1c2n[nH]c(=O)c3cc(F)cc(c23)N[C@@H]1c1ccc(F)cc1 + Cc1cccc(N(C)C(=O)C2C(O)CCN2c2nc(C)cc(C(F)(F)F)c2C#N)c1 | 79.9
20 | O=C(c1cc(Cc2n[nH]c(=O)c3ccccc23)ccc1F)N1CCN(C(=O)C2CC2)CC1 + Cc1cccc(N(C)C(=O)C2C(O)CCN2c2nc(C)cc(C(F)(F)F)c2C#N)c1 | 102

Same assay, conditions: second compound 10 µM; first compound 0.316 µM; active compounds read low

Row | SMILES | viability, T/C [%]
21 | C=CCn1c(=O)c2cnc(Nc3ccc(N4CCN(C)CC4)cc3)nc2n1-c1cccc(C(C)(C)O)n1 + Cc1cccc(N(C)C(=O)C2C(O)CCN2c2nc(C)cc(C(F)(F)F)c2C#N)c1 | 102
22 | CCc1c2c(nc3ccc(O)cc13)-c1cc3c(c(=O)n1C2)COC(=O)[C@]3(O)CC + Cc1cccc(N(C)C(=O)C2C(O)CCN2c2nc(C)cc(C(F)(F)F)c2C#N)c1 | 58.6
23 | CNCc1ccc(-c2[nH]c3cc(F)cc4c3c2CCNC4=O)cc1 + Cc1cccc(N(C)C(=O)C2C(O)CCN2c2nc(C)cc(C(F)(F)F)c2C#N)c1 | 76.9
24 | O=C(c1cc(Cc2n[nH]c(=O)c3ccccc23)ccc1F)N1CCN(C(=O)C2CC2)CC1 + Cc1cccc(N(C)C(=O)C2C(O)CCN2c2nc(C)cc(C(F)(F)F)c2C#N)c1 | 85.8

Same assay, conditions: second compound 10 µM; first compound 1 µM; active compounds read low

Row | SMILES | viability, T/C [%]
25 | C=CCn1c(=O)c2cnc(Nc3ccc(N4CCN(C)CC4)cc3)nc2n1-c1cccc(C(C)(C)O)n1 + Cc1cccc(N(C)C(=O)C2C(O)CCN2c2nc(C)cc(C(F)(F)F)c2C#N)c1 | 83.6
26 | CCc1c2c(nc3ccc(O)cc13)-c1cc3c(c(=O)n1C2)COC(=O)[C@]3(O)CC + Cc1cccc(N(C)C(=O)C2C(O)CCN2c2nc(C)cc(C(F)(F)F)c2C#N)c1 | 47.8
27 | CNCc1ccc(-c2[nH]c3cc(F)cc4c3c2CCNC4=O)cc1 + Cc1cccc(N(C)C(=O)C2C(O)CCN2c2nc(C)cc(C(F)(F)F)c2C#N)c1 | 90.5
28 | O=C(c1cc(Cc2n[nH]c(=O)c3ccccc23)ccc1F)N1CCN(C(=O)C2CC2)CC1 + Cc1cccc(N(C)C(=O)C2C(O)CCN2c2nc(C)cc(C(F)(F)F)c2C#N)c1 | 92.1

Same assay, conditions: second compound 10 µM; first compound 3.16 µM; active compounds read low

Row | SMILES | viability, T/C [%]
29 | CNCc1ccc(-c2[nH]c3cc(F)cc4c3c2CCNC4=O)cc1 + Cc1cccc(N(C)C(=O)C2C(O)CCN2c2nc(C)cc(C(F)(F)F)c2C#N)c1 | 88.3
30 | O=C(c1cc(Cc2n[nH]c(=O)c3ccccc23)ccc1F)N1CCN(C(=O)C2CC2)CC1 + Cc1cccc(N(C)C(=O)C2C(O)CCN2c2nc(C)cc(C(F)(F)F)c2C#N)c1 | 103

Same assay, conditions: second compound 10 µM; first compound 10 µM; active compounds read low

Row | SMILES | viability, T/C [%]
31 | CNCc1ccc(-c2[nH]c3cc(F)cc4c3c2CCNC4=O)cc1 + Cc1cccc(N(C)C(=O)C2C(O)CCN2c2nc(C)cc(C(F)(F)F)c2C#N)c1 | 74.9
32 | O=C(c1cc(Cc2n[nH]c(=O)c3ccccc23)ccc1F)N1CCN(C(=O)C2CC2)CC1 + Cc1cccc(N(C)C(=O)C2C(O)CCN2c2nc(C)cc(C(F)(F)F)c2C#N)c1 | 78.8
